One data set deals with Quadruplex DNA. Kind of data set: Induction of c-diGMP G quadruplex formation at 30 uM incubated for 12 hrs by circular dichroism analysis. The format is nucleic-acid assay. Background: CD spectra are sensitive to the conformation of chiral molecules.
The subject of data set [1] is Pseudomonas aeruginosa. Kind of data set: Antibiofilm activity against Pseudomonas aeruginosa PAO1 delta wspF at 1.25 uM measured after 24 hrs by crystal violet staining based analysis. The format is functional, organism-based.
Data set [2] concerns Pseudomonas aeruginosa. The experiment in a line: Antibacterial activity against Pseudomonas aeruginosa PAO1 delta wspF assessed as eradication of mature biofilm at 0.16 to 40 uM incubated for 15 hrs by crystal violet staining based analysis relative to control. The format is functional. To be noted: dose 0.16-40 µM.
Data set [3] has as its system Caenorhabditis elegans. Kind of data set: Synergistic anti-infective activity against Caenorhabditis elegans assessed as survival rate at 0.16 to 20 uM incubated for 24 hrs in presence of tobramycin relative to control. Format: functional. To be noted: dose 0.16-20 µM.
The subject of data set [4] is Pseudomonas aeruginosa. The experiment in a line: Antibacterial activity against Pseudomonas aeruginosa PAO1 delta wspF assessed as reduction in c-di-GMP induced EMP production at 0.156 to 1.25 uM incubated for 3 hrs by Congo red dye based spectrophotometric assay. The format is functional, organism-based. To be noted: dose 0.156-1.25 µM.
Data set [5] relates to Pseudomonas aeruginosa. The experiment in a line: Anti-motility activity against Pseudomonas aeruginosa PAO1 delta wspF assessed as promotion of swarming motility measured after 24 hrs. The format is functional, organism-based. To be noted: dose 0.156-1.25 µM.
The test system of data set [6] is Pseudomonas aeruginosa. The experiment in a line: Antibacterial activity against Pseudomonas aeruginosa PAO1 delta wspF assessed as reduction in c-di-GMP induced EMP production at 1.25 uM incubated for 3 hrs by Congo red dye based spectrophotometric assay relative to control. More on the design: scale not given: the % may be the effect or the level left. The format is functional.

For data set [7], the system named is Pseudomonas aeruginosa. Kind of data set: Synergistic antibacterial activity against Pseudomonas aeruginosa PAO1 delta wspF assessed as inhibition of reproduction of biofilm bacteria at upto 40 uM incubated for 15 hrs in presence of tobramycin by checker board assay. Format: functional, organism-based.
A further data set concerns DNA. Kind of data set: Induction of pBR322 DNA (unknown origin) damage assessed as DNA embedding effect by measuring tail formation incubated for 10 mins by electrophoresis assay. Format: toxicity.
Another data set concerns Vero. The experiment in a line: Cytotoxicity against African green monkey Vero cells at 0.156 to 20 uM measured after 24 hrs by MTT assay relative to control. The format is toxicity, cell-based. To be noted: chlorocebus sabaeus, dose 0.156-20 µM. Background: Formazan colour is commonly taken as a measure of viable cells.
Data set [8] has as its system Pseudomonas aeruginosa. Kind of data set: Antibacterial activity against Pseudomonas aeruginosa PAO1 delta wspF assessed as inhibition of biofilm formation at 1.25 uM incubated for 24 hrs relative to control. The format is functional. More on the design: scale not given: the % may be the effect or the level left.
Data set [9] has as its system Pseudomonas aeruginosa. Kind of data set: Antibacterial activity against Pseudomonas aeruginosa PAO1 delta wspF assessed as eradication of preformed bacterial biofilm at 0.625 to 40 uM incubated for 15 hrs by crystal violet staining based analysis. To be noted: dose 0.625-40 µM. The format is functional, organism-based.
In data set [10] the test system is Pseudomonas aeruginosa. The experiment in a line: Synergistic antibacterial activity against Pseudomonas aeruginosa PAO1 delta wspF assessed as inhibition of reproduction of biofilm bacteria at 2X MBC in presence of streptozocin by checker board assay. The format is functional, organism-based.
In data set [11] the test system is Caenorhabditis elegans. Kind of data set: Anti-infective activity against Caenorhabditis elegans assessed as survival rate at MBC level incubated for 24 hrs relative to control. Format: functional.
The subject of data set [12] is Pseudomonas aeruginosa. The experiment in a line: Synergistic antibacterial activity Pseudomonas aeruginosa PAO1 delta wspF assessed as fold reduction in survival of biofilm bacteria at 1.25 to 10 uM incubated for 15 hrs in presence of tobramycin by checker board assay. Format: functional. To be noted: dose 1.25-10 µM.
The subject of data set [13] is Pseudomonas aeruginosa. Kind of data set: Synergistic antibacterial activity against Pseudomonas aeruginosa PAO1 delta wspF assessed as inhibition of reproduction of biofilm bacteria at high concentration incubated for 15 hrs in presence of tobramycin by checker board assay. Format: functional, organism-based.
The test system of data set [14] is Pseudomonas aeruginosa. Kind of data set: Antibiofilm activity against Pseudomonas aeruginosa PAO1 delta wspF assessed as increase in number of planktonic bacteria at 1.25 to 10 uM incubated for 2 hrs. The format is functional, organism-based. To be noted: dose 1.25-10 µM.
Data set [15] in a line: Cytotoxicity against African green monkey Vero cells assessed as survival rate at 0.156 to 20 uM measured after 48 hrs by MTT assay relative to control. To be noted: chlorocebus sabaeus, dose 0.156-20 µM, read-out: Survival. The format is toxicity, cell-based.
In data set [16] the test system is Pseudomonas aeruginosa. Kind of data set: Antibacterial activity against Pseudomonas aeruginosa PAO1 delta wspF assessed as eradication of preformed bacterial biofilm at 1.25 uM incubated for 15 hrs by crystal violet staining based analysis relative to control. The format is functional.
The test system of data set [17] is Caenorhabditis elegans. The experiment in a line: Synergistic anti-infective activity against Caenorhabditis elegans assessed as survival rate at 10 uM incubated for 24 hrs in presence of tobramycin relative to control. The format is functional.

Consider eleven compounds from ChEMBL document CHEMBL5365434, “Cyclic Diguanylate G-Quadruplex Inducer-Nitric Oxide Donor Conjugate as a Bifunctional Antibiofilm Agent and Antibacterial Synergist against Pseudomonas aeruginosa with a Hyperbiofilm Phenotype” (J Med Chem, 2023).

Calls of active or inactive are those of the source. The calls are words filed in the database; no cut-off is given here.

Consider `CCNc1ccc(/C=C/c2ccc3ccccc3[n+]2C)cc1`, for which the outcome in the data set with Quadruplex DNA and with Pseudomonas aeruginosa [1] was Active.

As for `CN(N=O)C(=O)N[C@@H](C=O)[C@@H](O)[C@H](O)[C@H](O)CO` [STREPTOZOCIN], the Activity in the data set on Pseudomonas aeruginosa [2] was 30%; in the data set on Caenorhabditis elegans [3], 25%.

In the case of `CNc1ccc(/C=C/c2sc3ccccc3[n+]2C)cc1OC.[I-]`, the result in the data set with Quadruplex DNA, with Pseudomonas aeruginosa [1] and in the data set with Pseudomonas aeruginosa [4] was Active. Also, the Activity result in the data set with Pseudomonas aeruginosa [5] was “Dose-Dependent Effect”; with Pseudomonas aeruginosa [6] it was less than 50%; in the data set on DNA, “Not Active”; in the data set with Vero it was greater than 98%; in the data set on Pseudomonas aeruginosa [8], 60%. The result in the data set with Pseudomonas aeruginosa [7] and in the data set with Pseudomonas aeruginosa [9] was inactive.

As for `CCCNc1ccc(/C=C/c2ccc3ccccc3[n+]2C)cc1`, the result with Quadruplex DNA and with Pseudomonas aeruginosa [1] was Active.

On to `CNc1ccc(/C=C/c2ccc3ccccc3[n+]2C)cc1`, for which the result in the data set on Quadruplex DNA and in the data set with Pseudomonas aeruginosa [1] was Active.

As to `CN1/C(=C/c2cc[n+](C)c3ccccc23)Sc2ccccc21.Cc1ccc(S(=O)(=O)[O-])cc1`, the outcome in the data set with Pseudomonas aeruginosa [10] was Active. The results for the Activity in the data set with Caenorhabditis elegans [11] and in the data set with DNA were 20% and “Active”, respectively.

With `CCCNc1ccc(/C=C/c2sc3ccccc3[n+]2C)cc1`, the outcome with Quadruplex DNA and in the data set with Pseudomonas aeruginosa [1] was Active.

In the case of `CC(C)Nc1ccc(/C=C/c2sc3ccccc3[n+]2C)cc1`, the outcome in the data set on Quadruplex DNA and in the data set on Pseudomonas aeruginosa [1] was Active.

As to `CNc1ccc(/C=C/c2sc3ccccc3[n+]2C)cc1`, the outcome with Quadruplex DNA and with Pseudomonas aeruginosa [1] was Active.

As to `CCNc1ccc(/C=C/c2sc3ccccc3[n+]2C)cc1`, the outcome with Quadruplex DNA and with Pseudomonas aeruginosa [1] was Active.

On to `COc1cc(/C=C/c2sc3ccccc3[n+]2C)ccc1N(C)N=O.[I-]`, for which the “fold change (FC)” value in the data set with Pseudomonas aeruginosa [12] is 1000. Moreover, the result in the data set on Pseudomonas aeruginosa [13] and in the data set with Pseudomonas aeruginosa [14] was Active. The viability at 48 h, up to 20 µM in [15] turned out to be 80%. Moreover, the Activity with Pseudomonas aeruginosa [16] is reported as 40%; in the data set with Pseudomonas aeruginosa [8], 80%; with Caenorhabditis elegans [17], 60%.
